Measured values reported in patent US20080058213A1, “Benzoxazole Compounds” (priority 2004, published 2008).

Columns and labels:
Assay type in all cases: in vivo
[1] = system: velvetleaf (Abutilon theophrasti); assay: Soil treatment test for upland field (Test Example 2): velvetleaf; conditions: soil treatment before germination, examined after 3 weeks
Description: (§1) Evaluation of the herbicidal effect is shown in the following six grades, by comparing the condition of untreated control and growth inhibition (%): • 0: 0%-less than 20% • 1: 20%-less than 40% • 2: 40%-less than 60% • 3: 60%-less than 80% • 4: 80%-less than 100% • 5: 100%.
(§2) Upland field soil was filled in 1/3,000 are pots, seeded with southern crabgrass (Digitaria ciliaris), common lambsquaters (Chenopodium album), slender amaranth (Amaranthus viridis), common purslane (Portulaca oleracea), velvetleaf (Abutilon theophrasti), wheat, corn and soybean. The seeds were covered up with the soil.
(§3) Wettable powders containing the object compounds (1) as identified in Table 1, which were formulated following Preparation Example 2, were diluted with adequate amount of water to secure the prescribed dose of the active ingredient, and uniformly sprayed onto the surface soil layer after the seeding and before germination of the weeds, at an application water of 15 liters per are.
(§4) After placing the test pots in a glasshouse which was kept at an average temperature of 25° C. for 3 weeks, the herbicidal effect was examined.
(§5) Evaluations of the herbicidal effect and phytotoxicity were made in the manner similar to those in the above Test Example 1.

wheat [2] = assay: Foliage treatment test for upland field (Test Example 3): phytotoxicity to wheat; conditions: foliage treatment at 1.0-2.0 leaf stage of southern crabgrass, examined after 3 weeks
Method: (§6) Evaluation of phytotoxicity is shown in the following six grades, as compared with the condition of untreated control: • 0: normal growth • 1: little damaged • 2: low damaged • 3: medium damaged • 4: serious damaged • 5: complete killed.
(§7) Compost mixed soil was filled in 1/3,000 are pots, seeded with southern crabgrass, common lambsquaters, slender amaranth, common purslane, velvetleaf, wheat, corn and soybean. The seeds were covered up with the soil and cultured in a glasshouse kept at 25° C. on the average.
(§8) After placing the test pots in a grasshouse kept at 25° C. on the average for 3 weeks, the herbicidal effect was examined.

southern crabgrass = assay: Foliage treatment test for upland field (Test Example 3): southern crabgrass; conditions: foliage treatment at 1.0-2.0 leaf stage of southern crabgrass, examined after 3 weeks
Description: as §1, §7
(§9) Wettable powders containing the object compounds (1) as identified in Table 1, which were formulated following Preparation Example 2, were diluted with water to the prescribed dose of the active ingredient, and uniformly sprayed onto the weeds at 1.0-2.0 leaf stage of the southern crabgrass at an application water of 15 liters per are.
as §8
(§10) Evaluation of the herbicidal effect was conducted in the similar manner to Test Example 1.

corn [3] = assay: Soil treatment test for upland field (Test Example 2): phytotoxicity to corn; conditions: soil treatment before germination, examined after 3 weeks
Description: as §6, §2, §4

common lambsquaters = assay: Foliage treatment test for upland field (Test Example 3): common lambsquaters; conditions: foliage treatment at 1.0-2.0 leaf stage of southern crabgrass, examined after 3 weeks
Description: as §1, §7, §9, §8, §10

soybean [4] = assay: Foliage treatment test for upland field (Test Example 3): phytotoxicity to soybean; conditions: foliage treatment at 1.0-2.0 leaf stage of southern crabgrass, examined after 3 weeks
Method: as §6, §7, §8

wheat [5] = assay: Soil treatment test for upland field (Test Example 2): phytotoxicity to wheat; conditions: soil treatment before germination, examined after 3 weeks
Description: as §6, §2, §4

[6] = system: slender amaranth (Amaranthus viridis); assay: Soil treatment test for upland field (Test Example 2): slender amaranth; conditions: soil treatment before germination, examined after 3 weeks
Description: as §1, §2, §3, §4, §5

[7] = system: common purslane (Portulaca oleracea); assay: Soil treatment test for upland field (Test Example 2): common purslane; conditions: soil treatment before germination, examined after 3 weeks
Description: as §1, §2, §3, §4, §5

[8] = system: common lambsquaters (Chenopodium album); assay: Soil treatment test for upland field (Test Example 2): common lambsquaters; conditions: soil treatment before germination, examined after 3 weeks
Description: as §1, §2, §3, §4, §5

velvetleaf = assay: Foliage treatment test for upland field (Test Example 3): velvetleaf; conditions: foliage treatment at 1.0-2.0 leaf stage of southern crabgrass, examined after 3 weeks
Description: as §1, §7, §9, §8, §10

slender amaranth = assay: Foliage treatment test for upland field (Test Example 3): slender amaranth; conditions: foliage treatment at 1.0-2.0 leaf stage of southern crabgrass, examined after 3 weeks
Description: as §1, §7, §9, §8, §10

[9] = system: southern crabgrass (Digitaria ciliaris); assay: Soil treatment test for upland field (Test Example 2): southern crabgrass; conditions: soil treatment before germination, examined after 3 weeks
Description: as §1, §2, §3, §4, §5

common purslane = assay: Foliage treatment test for upland field (Test Example 3): common purslane; conditions: foliage treatment at 1.0-2.0 leaf stage of southern crabgrass, examined after 3 weeks
Description: as §1, §7, §9, §8, §10

soybean [10] = assay: Soil treatment test for upland field (Test Example 2): phytotoxicity to soybean; conditions: soil treatment before germination, examined after 3 weeks
Description: as §6, §2, §4

corn [11] = assay: Foliage treatment test for upland field (Test Example 3): phytotoxicity to corn; conditions: foliage treatment at 1.0-2.0 leaf stage of southern crabgrass, examined after 3 weeks
Method: as §6, §7, §8

Row | Compound | Herbicidal Effect velvetleaf ([1]; dose 2.5 g ai/a) | Herbicidal Effect velvetleaf ([1]; dose 5 g ai/a) | Phytotoxicity wheat (wheat [2]; dose 2.5 g ai/a) | Phytotoxicity wheat (wheat [2]; dose 5 g ai/a) | Herbicidal Effect southern crabgrass (southern crabgrass; dose 2.5 g ai/a) | Herbicidal Effect southern crabgrass (southern crabgrass; dose 5 g ai/a) | Phytotoxicity corn (corn [3]; dose 2.5 g ai/a) | Phytotoxicity corn (corn [3]; dose 5 g ai/a) | Phytotoxicity wheat (wheat [5]; dose 2.5 g ai/a) | Phytotoxicity wheat (wheat [5]; dose 5 g ai/a) | Herbicidal Effect slender amaranth ([6]; dose 2.5 g ai/a) | Herbicidal Effect slender amaranth ([6]; dose 5 g ai/a) | Herbicidal Effect common purslane ([7]; dose 2.5 g ai/a) | Herbicidal Effect common purslane ([7]; dose 5 g ai/a) | Herbicidal Effect common lambsquaters ([8]; dose 2.5 g ai/a) | Herbicidal Effect common lambsquaters ([8]; dose 5 g ai/a) | Herbicidal Effect southern crabgrass ([9]; dose 2.5 g ai/a) | Herbicidal Effect southern crabgrass ([9]; dose 5 g ai/a) | Phytotoxicity soybean (soybean [10]; dose 2.5 g ai/a) | Phytotoxicity soybean (soybean [10]; dose 5 g ai/a) | other results
1 | COCC(=Cc1cccc(C(F)(F)F)c1)c1nc2cc(OC(F)(F)F)ccc2o1 [Compound 46] | 4 (80%-less than 100%) | 5 (100%) | 0 | 1 | 4 (80%-less than 100%) | 5 (100%) | 0 | 1 | 0 | 0 | 5 (100%) | 5 (100%) | 5 (100%) | 5 (100%) | 5 (100%) | 5 (100%) | 4 (80%-less than 100%) | 5 (100%) | 0 | 1 | Herbicidal Effect Common lambsquatters (common lambsquaters; dose 2.5 g ai/a): 5 (100%); Herbicidal Effect Common lambsquatters (common lambsquaters; dose 5 g ai/a): 5 (100%); Phytotoxicity soybean (soybean [4]; dose 2.5 g ai/a): 1; Phytotoxicity soybean (soybean [4]; dose 5 g ai/a): 1; Herbicidal Effect velvetleaf (velvetleaf; dose 2.5 g ai/a): 4 (80%-less than 100%); Herbicidal Effect velvetleaf (velvetleaf; dose 5 g ai/a): 5 (100%); Herbicidal Effect slender amaranth (slender amaranth; dose 2.5 g ai/a): 5 (100%); Herbicidal Effect slender amaranth (slender amaranth; dose 5 g ai/a): 5 (100%); Herbicidal Effect common purslane (common purslane; dose 2.5 g ai/a): 5 (100%); Herbicidal Effect common purslane (common purslane; dose 5 g ai/a): 5 (100%); Phytotoxicity corn (corn [11]; dose 2.5 g ai/a): 0; Phytotoxicity corn (corn [11]; dose 5 g ai/a): 1
2 | CSCC(=Cc1cccc(C(F)(F)F)c1)c1nc2cc(C(F)(F)F)ccc2o1 [Compound 82] | 2 (40%-less than 60%) | 2 (40%-less than 60%) | 0 | 0 | 4 (80%-less than 100%) | 4 (80%-less than 100%) | 0 | 0 | 0 | 0 | 5 (100%) | 5 (100%) | 5 (100%) | 5 (100%) | 5 (100%) | 5 (100%) | 3 (60%-less than 80%) | 3 (60%-less than 80%) | 0 | 0 | Herbicidal Effect Common lambsquatters (common lambsquaters; dose 2.5 g ai/a): 5 (100%); Herbicidal Effect Common lambsquatters (common lambsquaters; dose 5 g ai/a): 5 (100%); Phytotoxicity soybean (soybean [4]; dose 2.5 g ai/a): 1; Phytotoxicity soybean (soybean [4]; dose 5 g ai/a): 1; Herbicidal Effect velvetleaf (velvetleaf; dose 2.5 g ai/a): 2 (40%-less than 60%); Herbicidal Effect velvetleaf (velvetleaf; dose 5 g ai/a): 3 (60%-less than 80%); Herbicidal Effect slender amaranth (slender amaranth; dose 2.5 g ai/a): 5 (100%); Herbicidal Effect slender amaranth (slender amaranth; dose 5 g ai/a): 5 (100%); Herbicidal Effect common purslane (common purslane; dose 2.5 g ai/a): 5 (100%); Herbicidal Effect common purslane (common purslane; dose 5 g ai/a): 5 (100%); Phytotoxicity corn (corn [11]; dose 2.5 g ai/a): 0; Phytotoxicity corn (corn [11]; dose 5 g ai/a): 1
3 | COCC(=Cc1cccc(C(F)(F)F)c1)c1nc2cc(C#N)c(F)cc2o1 [Compound 117] |  |  | 0 | 0 | 4 (80%-less than 100%) | 5 (100%) |  |  |  |  |  |  |  |  |  |  |  |  |  |  | Herbicidal Effect Common lambsquatters (common lambsquaters; dose 2.5 g ai/a): 5 (100%); Herbicidal Effect Common lambsquatters (common lambsquaters; dose 5 g ai/a): 5 (100%); Phytotoxicity soybean (soybean [4]; dose 2.5 g ai/a): 0; Phytotoxicity soybean (soybean [4]; dose 5 g ai/a): 1; Herbicidal Effect velvetleaf (velvetleaf; dose 2.5 g ai/a): 4 (80%-less than 100%); Herbicidal Effect velvetleaf (velvetleaf; dose 5 g ai/a): 5 (100%); Herbicidal Effect slender amaranth (slender amaranth; dose 2.5 g ai/a): 5 (100%); Herbicidal Effect slender amaranth (slender amaranth; dose 5 g ai/a): 5 (100%); Herbicidal Effect common purslane (common purslane; dose 2.5 g ai/a): 5 (100%); Herbicidal Effect common purslane (common purslane; dose 5 g ai/a): 5 (100%); Phytotoxicity corn (corn [11]; dose 2.5 g ai/a): 0; Phytotoxicity corn (corn [11]; dose 5 g ai/a): 1
4 | CCOCC(=Cc1cccc(C(F)(F)F)c1)c1nc2cc(F)c(F)cc2o1 [Compound 127] | 3 (60%-less than 80%) | 5 (100%) |  |  |  |  | 0 | 0 | 0 | 0 | 5 (100%) | 5 (100%) | 5 (100%) | 5 (100%) | 5 (100%) | 5 (100%) | 4 (80%-less than 100%) | 5 (100%) | 0 | 0 | 
5 | CCOCC(=Cc1cccc(C(F)(F)F)c1)c1nc2cc(F)c(C(F)(F)F)cc2o1 [Compound 141] | 3 (60%-less than 80%) | 5 (100%) |  |  |  |  | 0 | 0 | 0 | 1 | 5 (100%) | 5 (100%) | 5 (100%) | 5 (100%) | 5 (100%) | 5 (100%) | 4 (80%-less than 100%) | 5 (100%) | 0 | 0 | 
